Each structure is given as a SMILES string.

These results are taken from patent publication US11534415B2, “Use of colchicine to inhibit tumor growth and metastases” (Murray and Poole Enterprises, LTD., priority 2018, dated 2022).

Test [1] concerns subjects with a first episode of acute pericarditis. Particulars: at 18 months; aspirin alone or plus colchicine 1.0 to 2.0 mg first day then 0.5 to 1.0 mg/day for 3 months; p=0.004; cited from earlier work.
Test [2] deals with subjects with a first episode of recurrent pericarditis. Particulars: actual rates at 18 months; aspirin alone or plus colchicine 1.0-2.0 mg first day then 0.5-1.0 mg/d for 6 months; cited from earlier work.
Test [3] deals with commonly used tumor models. Nature of the test: Example 5: anti-tumor effects of colchicine in animals (tumor models). The test is classed as in vivo. Particulars: vs placebo control group. As to the method: A sufficient amount of specimen of a suitable animal species are included in this study utilizing commonly used tumor models. A therapeutically effective amount of colchicine is administered to the test animals. Placebo is administered to a control group. Tumor growth is induced in all animals.

Test [4] has as its system commonly used tumor cell lines with or without combination with cultivated PBMCs. Nature of the test: Example 6: anti-tumor effects of colchicine in vitro. Format: cell-based. Particulars: incubation with colchicine and/or cultivation with pretreated PBMCs. An excerpt: A suitable in vitro model for studying the anti-tumor effects of drugs is utilized for this test. Such a test may include commonly used tumor cell lines with or without combination with cultivated PBMCs.

The subject of test [5] is subjects with stable coronary disease. Conditions: colchicine 0.5 mg/day in addition to statins and other standard secondary prevention therapies; median of 3 years; cited from earlier work.
The test system of test [6] is human lipopolysaccharide (LPS) stimulated peripheral blood mononuclear cells (PBMC). Conditions: colchicine added to LPS stimulated PBMC; cited from earlier work.
Test [7] deals with co-cultures of PBMC with either HT-29 or RKO human colon cancer cells. Conditions: co-culture with HT-29 or RKO cells; cited from earlier work.
Test [8] concerns subjects with cancer or in risk of cancer. The test can be described thus: Example 4: randomized observer blinded end-point trial of sustained release colchicine added to standard anti-cancer therapies. Particulars: long-term low dose sustained release colchicine 0.5 mg/day vs standard therapy alone.
Protocol: To assess the therapeutic effects of a sustained release formulation in subjects with or in subjects with an increased risk of cancer, a prospective randomized observer blinded end-point trial was conducted to determine whether adding 0.5 mg/day of colchicine to standard anti-cancer therapies inhibits, delays, or reduces tumor growth or metastases in a cancer subject.
A sufficient amount of subjects with cancer or in risk of cancer are randomized to long-term low dose sustained release colchicine or to standard therapy alone.

On to `CC(=O)Oc1ccccc1C(=O)O` [aspirin], for which the recurrence rate is reported as 32.3% in test [1] and 50.6% in test [2].

With `COc1cc2c(c(OC)c1OC)-c1ccc(OC)c(=O)cc1[C@@H](NC(C)=O)CC2` [colchicine, (−)-N-[(7S, 12aS)-1,2,3,10-tetramethoxy-9-oxo-5,6,7,9-tetrahydrobenzo[a]heptalen-7-yl]-acetamide], the tumor growth result in test [3] is on record as “tumor growth is prevented and/or reduced”. In addition, the “growth of tumor cell lines” value in test [4] is listed as “inhibits or reduces growth of tumor cell lines”. In addition, the recurrence rate in test [1] is listed as 10.7%. Moreover, the recurrence rate in test [2] was 24.0%. In addition, the “prevention of cardiovascular events” value in test [5] is listed as “appeared effective for the prevention of cardiovascular events”. Further, in test [6], the IL-1β release result is on record as “increased” and the TNF-α release result was “decreased”. Also, in test [7], the “IL-1β production by cancer cells-stimulated PBMC” value is recorded as “promoted cancer cells-stimulated PBMC to produce IL-1β”; the “release of TNF-α and IL-10” value is “inhibit the release of tumor necrosis factor (TNF)-α and IL-10”. Besides, the “cancer incidence and mortality” value in test [8] is “significantly lower cancer incidence and mortality”.
